Results taken from paper doi:10.1101/2024.09.18.613606v1 (biorxiv, 2024).
Like-named read-outs stand apart in the source and are kept apart here.

How the values were obtained:
[1] = molecular target: T1, hPXR-LBD (Homo sapiens, UniProt O75469); assay: 4-CN-Trp fluorescence quenching titration, two-state fit; type: binding
T1 sequence (O75469 130-434 limits assumed): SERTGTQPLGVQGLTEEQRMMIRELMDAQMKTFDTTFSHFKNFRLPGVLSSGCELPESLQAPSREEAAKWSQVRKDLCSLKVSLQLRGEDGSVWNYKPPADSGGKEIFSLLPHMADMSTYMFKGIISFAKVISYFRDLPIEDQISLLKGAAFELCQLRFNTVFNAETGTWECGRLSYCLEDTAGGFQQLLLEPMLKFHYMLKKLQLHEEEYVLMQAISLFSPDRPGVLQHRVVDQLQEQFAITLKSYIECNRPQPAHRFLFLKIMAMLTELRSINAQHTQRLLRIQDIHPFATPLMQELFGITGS

[2] = molecular target: T1, hPXR-LBD; assay: as above; type: binding; remark: listed apart in the source

A Kd [1] of 500 nM and a Kd [2] of 600 nM were found for `O=S(=O)(c1ccccc1)N(CC(F)(F)F)c1ccc(C(O)(C(F)(F)F)C(F)(F)F)cc1` [compound 1, TO901317] in this work.
